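Compound exposure: 48 hours, 5 concentrations, 96-well plates. GI50 marks 50% less growth. At the TGI there is no net growth.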
What was measured:
Experiment in all cases: NCI tumour cell line growth inhibition, 48 h
786-0 renal = test system: 786-0 renal
A498 renal = test system: A498 renal
A549 NSCLC = test system: A549 NSCLC
ACHN renal = test system: ACHN renal
BT-549 breast = test system: BT-549 breast
CAKI-1 renal = test system: CAKI-1 renal
CCRF-CEM leukemia = test system: CCRF-CEM leukemia
COLO 205 colon = test system: COLO 205 colon
DU-145 prostate = test system: DU-145 prostate
EKVX NSCLC = test system: EKVX NSCLC
HCC-2998 colon = test system: HCC-2998 colon
HCT-116 colon = test system: HCT-116 colon
HCT-15 colon = test system: HCT-15 colon
HL-60(TB) leukemia = test system: HL-60(TB) leukemia
HOP-62 NSCLC = test system: HOP-62 NSCLC
HOP-92 NSCLC = test system: HOP-92 NSCLC
HS 578T breast = test system: HS 578T breast
HT29 colon = test system: HT29 colon
IGROV1 ovarian = test system: IGROV1 ovarian
K-562 leukemia = test system: K-562 leukemia
KM12 colon = test system: KM12 colon
LOX IMVI melanoma = test system: LOX IMVI melanoma
M14 melanoma = test system: M14 melanoma
MALME-3M melanoma = test system: MALME-3M melanoma
MCF7 breast = test system: MCF7 breast
MDA-MB-231 breast = test system: MDA-MB-231 breast
MDA-MB-435 = test system: MDA-MB-435
MDA-MB-468 breast = test system: MDA-MB-468 breast
MOLT-4 leukemia = test system: MOLT-4 leukemia
NCI-H226 lung = test system: NCI-H226 lung
NCI-H23 lung = test system: NCI-H23 lung
NCI-H460 lung = test system: NCI-H460 lung
NCI-H522 lung = test system: NCI-H522 lung
NCI/ADR-RES ovarian = test system: NCI/ADR-RES ovarian
OVCAR-3 ovarian = test system: OVCAR-3 ovarian
OVCAR-4 ovarian = test system: OVCAR-4 ovarian
OVCAR-5 ovarian = test system: OVCAR-5 ovarian
OVCAR-8 ovarian = test system: OVCAR-8 ovarian
PC-3 prostate = test system: PC-3 prostate
RPMI-8226 leukemia = test system: RPMI-8226 leukemia
RXF 393 renal = test system: RXF 393 renal
SF-268 CNS = test system: SF-268 CNS
SF-295 CNS = test system: SF-295 CNS
SF-539 CNS = test system: SF-539 CNS
SK-MEL-2 melanoma = test system: SK-MEL-2 melanoma
SK-MEL-28 melanoma = test system: SK-MEL-28 melanoma
SK-MEL-5 melanoma = test system: SK-MEL-5 melanoma
SK-OV-3 ovarian = test system: SK-OV-3 ovarian
SN12C renal = test system: SN12C renal
SNB-19 CNS = test system: SNB-19 CNS
SNB-75 CNS = test system: SNB-75 CNS
SR leukemia = test system: SR leukemia
SW-620 colon = test system: SW-620 colon
T-47D breast = test system: T-47D breast
TK-10 renal = test system: TK-10 renal
U251 CNS = test system: U251 CNS
UACC-257 melanoma = test system: UACC-257 melanoma
UACC-62 melanoma = test system: UACC-62 melanoma
UO-31 renal = test system: UO-31 renal

SMILES: CC12OOC(C)(OO1)C2CCC(=O)NCCCNc1ccnc2cc(Cl)ccc12 (stereo not drawn)
- GI50 (786-0 renal): 3.5 µM
- TGI (786-0 renal): 7.16 µM
- GI50 (A498 renal): > 20 µM
- TGI (A498 renal): > 20 µM
- GI50 (A549 NSCLC): 4.22 µM
- TGI (A549 NSCLC): 9.86 µM
- GI50 (ACHN renal): 3.45 µM
- TGI (ACHN renal): 6.22 µM
- GI50 (BT-549 breast): > 20 µM
- TGI (BT-549 breast): > 20 µM
- GI50 (CAKI-1 renal): 3.31 µM
- TGI (CAKI-1 renal): 6.07 µM
- GI50 (CCRF-CEM leukemia): 4.51 µM
- TGI (CCRF-CEM leukemia): 14.1 µM
- GI50 (COLO 205 colon): 3.69 µM
- TGI (COLO 205 colon): 7.68 µM
- GI50 (DU-145 prostate): 3.58 µM
- TGI (DU-145 prostate): 6.52 µM
- GI50 (EKVX NSCLC): 3.8 µM
- TGI (EKVX NSCLC): 7.99 µM
- GI50 (HCC-2998 colon): > 20 µM
- TGI (HCC-2998 colon): > 20 µM
- GI50 (HCT-116 colon): 5.56 µM
- TGI (HCT-116 colon): 17.6 µM
- GI50 (HCT-15 colon): 4.03 µM
- TGI (HCT-15 colon): 9.17 µM
- GI50 (HL-60(TB) leukemia): 3.6 µM
- TGI (HL-60(TB) leukemia): 8.63 µM
- GI50 (HOP-62 NSCLC): > 20 µM
- TGI (HOP-62 NSCLC): > 20 µM
- GI50 (HOP-92 NSCLC): 3.34 µM
- TGI (HOP-92 NSCLC): 6.87 µM
- GI50 (HS 578T breast): > 20 µM
- TGI (HS 578T breast): > 20 µM
- GI50 (HT29 colon): 3.86 µM
- TGI (HT29 colon): 7.47 µM
- GI50 (IGROV1 ovarian): 7.07 µM
- TGI (IGROV1 ovarian): > 20 µM
- GI50 (K-562 leukemia): 4.28 µM
- TGI (K-562 leukemia): 10.1 µM
- GI50 (KM12 colon): > 20 µM
- TGI (KM12 colon): > 20 µM
- GI50 (LOX IMVI melanoma): 3.06 µM
- TGI (LOX IMVI melanoma): 5.85 µM
- GI50 (M14 melanoma): 3.66 µM
- TGI (M14 melanoma): 7.4 µM
- GI50 (MALME-3M melanoma): 3.35 µM
- TGI (MALME-3M melanoma): 6.31 µM
- GI50 (MCF7 breast): 8.11 µM
- TGI (MCF7 breast): > 20 µM
- GI50 (MDA-MB-231 breast): 8.26 µM
- TGI (MDA-MB-231 breast): > 20 µM
- GI50 (MDA-MB-435): 4.84 µM
- TGI (MDA-MB-435): 16.2 µM
- GI50 (MDA-MB-468 breast): 3.6 µM
- TGI (MDA-MB-468 breast): 8.97 µM
- GI50 (MOLT-4 leukemia): 8.6 µM
- TGI (MOLT-4 leukemia): > 20 µM
- GI50 (NCI-H226 lung): > 20 µM
- TGI (NCI-H226 lung): > 20 µM
- GI50 (NCI-H23 lung): > 20 µM
- TGI (NCI-H23 lung): > 20 µM
- GI50 (NCI-H460 lung): 12.7 µM
- TGI (NCI-H460 lung): > 20 µM
- GI50 (NCI-H522 lung): 2.66 µM
- TGI (NCI-H522 lung): 5.59 µM
- GI50 (NCI/ADR-RES ovarian): > 20 µM
- TGI (NCI/ADR-RES ovarian): > 20 µM
- GI50 (OVCAR-3 ovarian): 2.97 µM
- TGI (OVCAR-3 ovarian): 5.83 µM
- GI50 (OVCAR-4 ovarian): 3.19 µM
- TGI (OVCAR-4 ovarian): 6.64 µM
- GI50 (OVCAR-5 ovarian): > 20 µM
- TGI (OVCAR-5 ovarian): > 20 µM
- GI50 (OVCAR-8 ovarian): > 20 µM
- TGI (OVCAR-8 ovarian): > 20 µM
- GI50 (PC-3 prostate): > 20 µM
- TGI (PC-3 prostate): > 20 µM
- GI50 (RPMI-8226 leukemia): 9.51 µM
- TGI (RPMI-8226 leukemia): > 20 µM
- GI50 (RXF 393 renal): 3.69 µM
- TGI (RXF 393 renal): 9.56 µM
- GI50 (SF-268 CNS): > 20 µM
- TGI (SF-268 CNS): > 20 µM
- GI50 (SF-295 CNS): > 20 µM
- TGI (SF-295 CNS): > 20 µM
- GI50 (SF-539 CNS): 11.3 µM
- TGI (SF-539 CNS): > 20 µM
- GI50 (SK-MEL-2 melanoma): > 20 µM
- TGI (SK-MEL-2 melanoma): > 20 µM
- GI50 (SK-MEL-28 melanoma): > 20 µM
- TGI (SK-MEL-28 melanoma): > 20 µM
- GI50 (SK-MEL-5 melanoma): > 20 µM
- TGI (SK-MEL-5 melanoma): > 20 µM
- GI50 (SK-OV-3 ovarian): > 20 µM
- TGI (SK-OV-3 ovarian): > 20 µM
- GI50 (SN12C renal): > 20 µM
- TGI (SN12C renal): > 20 µM
- GI50 (SNB-19 CNS): > 20 µM
- TGI (SNB-19 CNS): > 20 µM
- GI50 (SNB-75 CNS): > 20 µM
- TGI (SNB-75 CNS): > 20 µM
- GI50 (SR leukemia): 3.88 µM
- TGI (SR leukemia): 8.71 µM
- GI50 (SW-620 colon): 4.3 µM
- TGI (SW-620 colon): > 20 µM
- GI50 (T-47D breast): 4.35 µM
- TGI (T-47D breast): 13.4 µM
- GI50 (TK-10 renal): 4.62 µM
- TGI (TK-10 renal): 14.5 µM
- GI50 (U251 CNS): > 20 µM
- TGI (U251 CNS): > 20 µM
- GI50 (UACC-257 melanoma): 9.4 µM
- TGI (UACC-257 melanoma): > 20 µM
- GI50 (UACC-62 melanoma): 12.6 µM
- TGI (UACC-62 melanoma): > 20 µM
- GI50 (UO-31 renal): 3.1 µM
- TGI (UO-31 renal): 5.78 µM

Source: PubChem BioAssay (NCI)
